Consider three substances from US20110033883A1, “IMAGING DYES AND USE THEREOF” (priority 2007, published 2011).

Ru(bpy)2(pic) = [Ru(bpy)2(piCH2)]2+ complex, attached to the peptide through a hexyl spacer; Ahx = NCCCCCC(=O)O

Data set [1] is described as follows: pH titration, ground-state pKa (UV/vis absorption, Henderson-Hasselbalch fit). It is filed as physicochemical. Here is the method: ^1H NMR spectra were recorded on a Bruker Advance series 400 MHz NMR spectrometer. The NMR titration experiments were performed following a previously published protocol (Charbonnier and Penades). Mass spectra were acquired using a positive ion mode on a Bruker LC/MS Esquire. Electronic absorption spectra were measured on a Shimadzu 3500 UV-VIS/NIR spectrophotometer. Cyclic voltammetry was carried out using a CH Instruments CH602 electrochemical workstation. A conventional three-electrode cell was used, employing glassy carbon as working, Ag/AgCl as reference or Ag/AgNO3 in acetonitrile, and Pt wire as counter electrodes. Electrochemistry was conducted in water and acetonitrile respectively with 0.1 M phosphate buffer or tetrabutylammonium tetrafluoroborate (TBABF4) as supporting electrolyte under an N2 atmosphere. pH titrations were performed in the pH range 0.5-12. The pH was adjusted by adding aqueous solutions of NaOH or HClO4.
The pH was adjusted with H2SO4 (Sigma-Aldrich) and KOH (Sigma-Aldrich) and measured with a pH meter. UV/vis absorption spectra during the pH titration experiment were corrected for change in volume.
UV/vis absorption titration curves were fitted with a modified Henderson-Hasselbalch equation which was obtained using Beer-Lambert's law to express the concentration, FIG. 2(b) For fitting the fluorescence titration curve it was assumed that the average lifetime goes linear with the ratio of the two species in equilibrium at the certain pH.
At a shorter wavelength the ππ* transitions centred at the ligands are found: around 350 nm the ππ* transition at the pic ligand, and around 280 nm at the bipyridine ligands. […] The increasing absorption with increasing pH at 350 nm is plotted in FIG. 13B. Fitting this curve with a modified Henderson-Hasselbalch equation results in a pKa1 of 1.72±0.07 and pKa2 of 8.16±0.03. As expected the pH dependence of the other bands is rather minor.

The nature of data set [2]: pH dependence of resonance Raman peak ratios. The class given is physicochemical. Particulars: ratio of peaks at 1575 and 1317 cm^-1, 458 nm excitation. Here is the method:
(§1) Resonance Raman spectroscopy was performed on a Horiba Jobin Yvon HR800UV confocal microscope using an Argon ion Laser (458 nm or 514 nm) or a Helium-Neon (HeNe) laser (633 nm) as the exciting wavelength. Ten spectral acquisitions were accumulated and each acquisition was two seconds in length. Steady-state emission spectra were recorded on a Cary Eclipse Fluorescence spectrophotometer, and luminescence lifetimes were obtained using a Picoquant Fluotime 100 TCSPC system exciting at 470 nm and detecting at 600 nm using a narrow band pass dielectric filter. Quantum yields were measured using the comparative method described by Williams et al. In quenching studies, the luminophore/quencher concentrations were corrected for dilution.
To evaluate the pH dependence of the resonance Raman data peak ratios were calculated with Labspec5 software. A baseline was drawn along the base of the peak and the area was calculated. Regions for the peaks were 1700 to 1400 cm^−1. The ratio of the peaks for the different protonation states […] 5 replica measurements were recorded for each pH and averaged.
As the pH changes, the pic moiety can be protonated or deprotonated, while the bpy moieties should stay mainly unaffected by changes in pH. […]

Data set [3] concerns bovine aortic epithelial (BAE) cells. In words: Confocal luminescence imaging of bovine aortic epithelial (BAE) cells. Particulars: BAE cells in PBS buffer, 22° C., excitation 458 nm. The class given is cell-based. Here is the method: Bovine aortic endothelium cells were supplied by Dr PM Cummins and cultured as described in Colgon et al.
Here it has been used to image emission spectrum (left) and a confocal image at a excitation wavelength of 458 nm (right) of bovine aortic epithelial (BAE) cells. The dyes were incubated at 22° C. with BAE cells in PBS buffer.

For data set [4], the system named is mouse SP2/0 myeloma cells. In words: Resonance Raman mapping of myeloma cells. It is filed as cell-based. Particulars: mouse SP2/0 myeloma cells, pH 7.4 PBS, cells washed. As to the method:
as §1
For the fluorescence and fluorescence lifetime experiments 100 μl aliquots were used and incubated with the 3 μl of the Ru-octopeptide (1.2 mM), resulting in a final dye concentration of 3.5×10^−5 M. If only resonance Raman experiments were performed, the cells were incubated in the medium with dye for 15 minutes prior to the washing step.
The resonance Raman maps of the stained myeloma cells were analyzed using the modelling option implemented in the LabSpec software. A model with 4 components was creating, grouping together similar spectra in one component (background, where there is no dye/no cell, outer cell (membrane), cytoplasm and nucleus). […]

As for [Ru(bpy)2(PicH2)](PF6)2 [[Ru-LH]^2+], in data set [1], the “pKa of ionisable site at the imidazole (higher)” value worked out at 8.5 and the “pKa of ionisable site at the imidazole (lower)” value is reported as 1.6. In data set [2], the “pKa from ratio of resonance Raman peaks” value is on record as 8.5±0.2.

On to “[Ru(bpy)2(pic-KVG)]^n+: [Ru(bpy)2(piCH2)]^2+ attached through a hexyl spacer to KVGFFKR-NH2 (SEQ ID No. 20) ({Ru(bpy)2(pic)-Ahx}-KVGFFKR-NH2; also: ruthenium complex, charge n+)”, for which the “localisation of the dye in the cells (luminescence image)” value in data set [3] is listed as “concentrates in the membrane”.

Consider “[Ru(dppz)2(PicH2)]ClO4 [[Ru(dppz)2PICH2]^2+]”, for which the “entry into the cell (resonance Raman imaging)” value in data set [4] is “only interacted with the membrane but did not cross it”.
